Laboratory results: PubChem BioAssay (NCI)
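A five-concentration, 48-hour dose response in 96-well plates underlies each endpoint, interpolated linearly between surrounding concentrations. TGI: concentration producing complete growth inhibition.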

Legend:
Assay in all cases: NCI-60 cell line screen, 48 h
[1] = tested on: U251 CNS
[2] = tested on: UACC-62 melanoma
[3] = tested on: SN12C renal
[4] = tested on: M14 melanoma
[5] = tested on: PC-3 prostate
[6] = tested on: SNB-19 CNS
[7] = tested on: SK-MEL-5 melanoma
[8] = tested on: HOP-92 NSCLC
[9] = tested on: DU-145 prostate
[10] = tested on: OVCAR-4 ovarian
[11] = tested on: MDA-N
[12] = tested on: HCT-15 colon
[13] = tested on: IGROV1 ovarian
[14] = tested on: SNB-75 CNS
[15] = tested on: UACC-257 melanoma
[16] = tested on: T-47D breast
[17] = tested on: OVCAR-8 ovarian
[18] = tested on: NCI-H522 lung
[19] = tested on: 786-0 renal
[20] = tested on: MALME-3M melanoma
[21] = tested on: SK-MEL-2 melanoma
[22] = tested on: CAKI-1 renal
[23] = tested on: SW-620 colon
[24] = tested on: SK-OV-3 ovarian
[25] = tested on: NCI/ADR-RES ovarian
[26] = tested on: EKVX NSCLC
[27] = tested on: OVCAR-3 ovarian
[28] = tested on: A498 renal
[29] = tested on: UO-31 renal
[30] = tested on: SF-268 CNS
[31] = tested on: MDA-MB-435
[32] = tested on: TK-10 renal
[33] = tested on: A549 NSCLC
[34] = tested on: SF-295 CNS
[35] = tested on: HCT-116 colon
[36] = tested on: MDA-MB-231 breast
[37] = tested on: NCI-H23 lung
[38] = tested on: RPMI-8226 leukemia
[39] = tested on: HOP-62 NSCLC
[40] = tested on: KM12 colon
[41] = tested on: COLO 205 colon
[42] = tested on: SK-MEL-28 melanoma
[43] = tested on: CCRF-CEM leukemia
[44] = tested on: NCI-H226 lung
[45] = tested on: LOX IMVI melanoma
[46] = tested on: OVCAR-5 ovarian
[47] = tested on: RXF 393 renal
[48] = tested on: ACHN renal
[49] = tested on: K-562 leukemia
[50] = tested on: MOLT-4 leukemia
[51] = tested on: HS 578T breast
[52] = tested on: BT-549 breast
[53] = tested on: HCC-2998 colon
[54] = tested on: NCI-H460 lung
[55] = tested on: MCF7 breast
[56] = tested on: HT29 colon
[57] = tested on: SF-539 CNS
[58] = tested on: HL-60(TB) leukemia

For `CCOC(=O)/C=C1\c2ccccc2C(=O)N1CC(=O)OCC`, the TGI [1] was greater than 100 µM, the TGI [2] was greater than 100 µM and the TGI [3] was greater than 100 µM. It also gave a TGI [4] greater than 100 µM, a TGI [5] greater than 100 µM and a TGI [6] greater than 100 µM. It also gave a TGI [7] greater than 100 µM, a TGI [8] greater than 100 µM and a TGI [9] greater than 100 µM. For the same compound, the TGI [10] was greater than 100 µM, the TGI [11] was greater than 100 µM and the TGI [12] was greater than 100 µM. For the same compound, the TGI [13] was greater than 100 µM, the TGI [14] was greater than 100 µM and the TGI [15] was greater than 100 µM. The TGI [16] was greater than 100 µM, the TGI [17] was greater than 100 µM and the TGI [18] was greater than 100 µM. For the same compound, the TGI [19] was greater than 100 µM, the TGI [20] was greater than 100 µM and the TGI [21] was greater than 100 µM. The TGI [22] was greater than 100 µM, the TGI [23] was greater than 100 µM and the TGI [24] was greater than 100 µM. It also gave a TGI [25] greater than 100 µM, a TGI [26] greater than 100 µM and a TGI [27] greater than 100 µM. It also gave a TGI [28] greater than 100 µM, a TGI [29] greater than 100 µM and a TGI [30] greater than 100 µM. The TGI [31] was greater than 100 µM, the TGI [32] was greater than 100 µM and the TGI [33] was greater than 100 µM. For the same compound, the TGI [34] was greater than 100 µM, the TGI [35] was greater than 100 µM and the TGI [36] was greater than 100 µM. For the same compound, the TGI [37] was greater than 100 µM, the TGI [38] was greater than 100 µM and the TGI [39] was greater than 100 µM. It also gave a TGI [40] greater than 100 µM, a TGI [41] greater than 100 µM and a TGI [42] greater than 100 µM. The TGI [43] was greater than 100 µM, the TGI [44] was greater than 100 µM and the TGI [45] was greater than 100 µM. It also gave a TGI [46] greater than 100 µM, a TGI [47] greater than 100 µM and a TGI [48] greater than 100 µM. It also gave a TGI [49] greater than 100 µM, a TGI [50] greater than 100 µM and a TGI [51] greater than 100 µM. For the same compound, the TGI [52] was greater than 100 µM.

With `NC(Cc1ccccc1)(C(=O)O)C(=O)O` the TGI [1] was greater than 100 µM, the TGI [2] was greater than 100 µM and the TGI [3] was greater than 100 µM. For the same compound, the TGI [4] was greater than 100 µM, the TGI [5] was greater than 100 µM and the TGI [6] was greater than 100 µM. For the same compound, the TGI [7] was greater than 100 µM, the TGI [8] was greater than 100 µM and the TGI [9] was greater than 100 µM. For the same compound, the TGI [10] was greater than 100 µM, the TGI [11] was greater than 100 µM and the TGI [12] was greater than 100 µM. It also gave a TGI [13] greater than 100 µM, a TGI [15] greater than 100 µM and a TGI [16] greater than 100 µM. For the same compound, the TGI [17] was greater than 100 µM, the TGI [53] was greater than 100 µM and the TGI [18] was greater than 100 µM. For the same compound, the TGI [19] was greater than 100 µM, the TGI [54] was greater than 100 µM and the TGI [20] was greater than 100 µM. The TGI [21] was greater than 100 µM, the TGI [22] was greater than 100 µM and the TGI [23] was greater than 100 µM. It also gave a TGI [24] greater than 100 µM, a TGI [25] greater than 100 µM and a TGI [26] greater than 100 µM. The TGI [55] was greater than 100 µM, the TGI [27] was greater than 100 µM and the TGI [28] was greater than 100 µM. It also gave a TGI [29] greater than 100 µM, a TGI [30] greater than 100 µM and a TGI [31] greater than 100 µM. For the same compound, the TGI [32] was greater than 100 µM, the TGI [33] was greater than 100 µM and the TGI [34] was greater than 100 µM. The TGI [35] was greater than 100 µM, the TGI [36] was greater than 100 µM and the TGI [37] was greater than 100 µM. The TGI [38] was greater than 100 µM, the TGI [39] was greater than 100 µM and the TGI [40] was greater than 100 µM. The TGI [41] was greater than 100 µM, the TGI [42] was greater than 100 µM and the TGI [43] was greater than 100 µM. The TGI [44] was greater than 100 µM, the TGI [45] was greater than 100 µM and the TGI [46] was greater than 100 µM. For the same compound, the TGI [47] was greater than 100 µM, the TGI [56] was greater than 100 µM and the TGI [48] was greater than 100 µM. It also gave a TGI [49] greater than 100 µM, a TGI [50] greater than 100 µM and a TGI [51] greater than 100 µM. The TGI [52] was greater than 100 µM and the TGI [57] was greater than 100 µM.

`Cc1ccc(S(=O)(=O)NC(=O)Nc2ccc(S(N)(=O)=O)cc2S(N)(=O)=O)cc1` gave a TGI [1] greater than 100 µM, a TGI [2] greater than 100 µM and a TGI [3] greater than 100 µM. For the same compound, the TGI [4] was greater than 100 µM, the TGI [5] was greater than 100 µM and the TGI [6] was greater than 100 µM. The TGI [7] was greater than 100 µM, the TGI [8] was greater than 100 µM and the TGI [9] was greater than 100 µM. It also gave a TGI [10] greater than 100 µM, a TGI [11] greater than 100 µM and a TGI [12] greater than 100 µM. The TGI [13] was greater than 100 µM, the TGI [14] was greater than 100 µM and the TGI [15] was greater than 100 µM. It also gave a TGI [17] greater than 100 µM, a TGI [18] greater than 100 µM and a TGI [19] greater than 100 µM. For the same compound, the TGI [20] was greater than 100 µM, the TGI [21] was greater than 100 µM and the TGI [22] was greater than 100 µM. It also gave a TGI [23] greater than 100 µM, a TGI [24] greater than 100 µM and a TGI [25] greater than 100 µM. The TGI [26] was greater than 100 µM, the TGI [55] was greater than 100 µM and the TGI [27] was greater than 100 µM. For the same compound, the TGI [29] was greater than 100 µM, the TGI [30] was greater than 100 µM and the TGI [31] was greater than 100 µM. For the same compound, the TGI [32] was greater than 100 µM, the TGI [33] was greater than 100 µM and the TGI [34] was greater than 100 µM. The TGI [35] was greater than 100 µM, the TGI [36] was greater than 100 µM and the TGI [37] was greater than 100 µM. The TGI [38] was greater than 100 µM, the TGI [39] was greater than 100 µM and the TGI [40] was greater than 100 µM. For the same compound, the TGI [41] was greater than 100 µM, the TGI [42] was greater than 100 µM and the TGI [43] was greater than 100 µM. For the same compound, the TGI [44] was greater than 100 µM, the TGI [58] was greater than 100 µM and the TGI [45] was greater than 100 µM. The TGI [46] was greater than 100 µM, the TGI [47] was greater than 100 µM and the TGI [56] was greater than 100 µM. The TGI [49] was greater than 100 µM, the TGI [50] was greater than 100 µM and the TGI [51] was greater than 100 µM. For the same compound, the TGI [52] was greater than 100 µM.

`CC(C)NCCC(O)c1cc2ccccc2o1` (stereo not given) was tested, and the TGI [1] was greater than 100 µM, the TGI [2] was greater than 100 µM and the TGI [3] was greater than 100 µM. For the same compound, the TGI [4] was greater than 100 µM, the TGI [5] was greater than 100 µM and the TGI [6] was greater than 100 µM. The TGI [7] was greater than 100 µM, the TGI [8] was greater than 100 µM and the TGI [9] was greater than 100 µM. For the same compound, the TGI [10] was greater than 100 µM, the TGI [11] was greater than 100 µM and the TGI [12] was greater than 100 µM. It also gave a TGI [13] greater than 100 µM, a TGI [14] greater than 100 µM and a TGI [15] greater than 100 µM. It also gave a TGI [16] greater than 100 µM, a TGI [17] greater than 100 µM and a TGI [18] greater than 100 µM. The TGI [19] was greater than 100 µM, the TGI [54] was greater than 100 µM and the TGI [20] was greater than 100 µM. It also gave a TGI [21] greater than 100 µM, a TGI [22] greater than 100 µM and a TGI [23] greater than 100 µM. It also gave a TGI [24] greater than 100 µM, a TGI [25] greater than 100 µM and a TGI [26] greater than 100 µM. For the same compound, the TGI [55] was greater than 100 µM, the TGI [27] was greater than 100 µM and the TGI [28] was greater than 100 µM. For the same compound, the TGI [29] was greater than 100 µM, the TGI [30] was greater than 100 µM and the TGI [31] was greater than 100 µM. It also gave a TGI [32] greater than 100 µM, a TGI [33] greater than 100 µM and a TGI [34] greater than 100 µM. It also gave a TGI [35] greater than 100 µM, a TGI [36] greater than 100 µM and a TGI [37] greater than 100 µM. For the same compound, the TGI [38] was greater than 100 µM, the TGI [39] was greater than 100 µM and the TGI [40] was greater than 100 µM. It also gave a TGI [41] greater than 100 µM, a TGI [42] greater than 100 µM and a TGI [44] greater than 100 µM. The TGI [45] was greater than 100 µM, the TGI [46] was greater than 100 µM and the TGI [47] was greater than 100 µM. It also gave a TGI [56] greater than 100 µM, a TGI [48] greater than 100 µM and a TGI [49] greater than 100 µM. The TGI [50] was 49.2 µM, the TGI [51] was greater than 100 µM and the TGI [52] was greater than 100 µM. The TGI [57] was greater than 100 µM.
